Laboratory results reported in patent US7968535B2, “Use of azapaullones for preventing and treating pancreatic autoimmune disorders” (Develogen Atkiengesellschaft, priority 2005, dated 2011).

Assays:
INS-1E cells = assay: DNA-fragmentation ELISA in glucose/palmitate stressed cells; type: cell-based, rat; settings: 2.5 μM, glucose/palmitate 24 hours
Experimental: The effects of the substance on cell viability, cell growth and specific apoptotic events such as caspases activity and DNA-fragmentation was monitored. INS-1E cell apoptosis was induced by treatment of cell cultures with toxic concentrations of glucose and palmitate for 24 hours. The substance of interest was added to the medium 1 hour prior to the addition of the toxic agents.
DNA-fragmentation is a comparatively late apoptotic event comprising storage of nucleosomal DNA-fragments as mono- and oligo nucleosomes in the cytoplasm. The incubation of INS1-E cells with high concentrations of glucose and palmitate for 24 hours leads to DNA breakdown and the accumulation of nucleosomal DNA fragments in the cytoplasm. The detectable amount of cytosolic nucleosomal DNA fragments was reduced by about 17%, when cells were treated with the apoptosis inducing agents in combination with 10 μM 4-AKP.
10,000 Ins-1E cells were seeded per 96-well (black 96-well tissue culture plates, Falcon #353948) in 100 μl culture medium (RPMI 1640 containing 11 mM glucose, 5% FCS, 10 mM HEPES, 50 μM 2-mercaptoethanol, 1 mM MEM sodium pyruvate, 100 U/ml penicillin, 100 μg/ml streptomycin) and cultivated at 37° C., 5% CO2 in humidified atmosphere for 3 days. Media was changed to 100 μl starvation medium (culture medium with only 5 mM glucose, 1% FCS) and the cells were re-incubated for 1 day. Then media was exchanged to starvation medium containing test substances.
Apoptosis of Ins-1E cells was induced by addition of a combination of BSA coupled palmitate and glucose (pal/gluc) or a combination of cytokines (cyt) 1 hour after starting the treatment with test substances: pal/gluc: 0.3 mM palmitate:BSA (palmitic acid sodium salt:fatty acid free BSA 6:1) and 25 mM glucose. 10×cyt: 0.04 ng/ml IL-1β and 1 ng/ml IFNγ. The cells were further incubated with test substances and apoptotic inducer for 24 hours.
DNA-fragmentation is a late apoptotic event comprising storage of nucleosomal DNA-fragments as mono- and oligo nucleosomes in the cytoplasm. Their concentration was determined by ELISA (Cell death detection ELISA, Roche, cat. No. 1774425) according to the manufacturers guidelines.

Pax4 gene = assay: Pax4 transcription by quantitative real time RT-PCR; type: cell-based, rat
Experimental: FIG. 11 illustrates a representative experiment in which the relative Pax4 levels were quantified using quantitative real time RT-PCR. […] Data are presented as relative levels to the basal Pax4 expression level in INS-1E cells only treated with the vehicle (Co.). Activin-A (1 nM) treated INS-1E cells serve as a positive control.
The response of the Pax4 gene to test compounds was investigated in the rat insulinoma cell line INS-1E. INS-1E cells are known to express Pax4 and to upregulate Pax4 levels in response to the treatment with activin-A and betacellulin. In the search for novel beta cell mitogens and/or beta cell protective agents the inventors treated INS-1E cells with test compound 10c. Compound 10c induces the relative Pax4 expression about 5-fold compared to the control and compared to 1 nM activin A (FIG. 11).
INS-1E cells were cultured as described (Merglen, (2004) Endocrinology; 145: 667-678). Cells were seeded at a density of 2×10^4 cells per cm^2 6 to 8 days before the treatment with chemicals. During the growth period the medium was changed once. […]
Total RNA from 8×10^4 cells growing on 4 cm^2 surface area of a tissue culture dish was extracted using Qiagen RNAeasy kit according to the instructions of the manufacturer (Qiagen) and 2 μg was converted into cDNA. […] Quantitative real-time PCR was performed using Applied Biosystems SDS 7000 detection system. […]

**Q.** With N#Cc1ccc2[nH]c3c(c2c1)CC(=O)Nc1cccnc1-3 [Compound 10c, 6-Oxo-5,6,7,12-tetrahydropyrido[3′,2′:2,3]azepino[4,5-b]indole-9-carbonitrile] as the molecule, how does the “reduction of cytosolic DNA-fragments” value (INS-1E cells) read?
**A.** 74%

**Q.** What about the Pax4 gene transcription (Pax4 gene; 2 μM) of the same molecule?
**A.** transiently induce Pax4 gene transcription

**Q.** What about the “relative Pax4 expression compared to the control” value (Pax4 gene; INS-1E cells, vehicle control) of the same molecule?
**A.** about 5 fold
